Source: ChEMBL document CHEMBL1201862, “PubChem BioAssay data set” (2004)
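Step 1: Grow cells in 96-well plates. Step 2: Expose to compound for 48 hours at 5 concentrations. Step 3: Interpolate endpoints linearly; if unreached, use highest concentration. At the GI50, growth is halved.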 Active and inactive are the calls of the source. No stated cut-off is given here; in the data, active = GI50 up to about 1.1 µM and inactive = higher.

What was measured:
Test in all cases: inhibition of tumour cell growth, NCI panel, 48 h
[1] = test system: ACHN
[2] = test system: BT-549
[3] = test system: CAKI-1
[4] = test system: CCRF-CEM
[5] = test system: HCC 2998
[6] = test system: HCT-116
[7] = test system: HCT-15
[8] = test system: HT-29
[9] = test system: IGROV-1
[10] = test system: K562
[11] = test system: MCF7
[12] = test system: MDA-N
[13] = test system: NCI-H23
[14] = test system: NCI-H522
[15] = test system: PC-3
[16] = test system: SK-MEL-28
[17] = test system: SK-MEL-5
[18] = test system: SNB-75
[19] = test system: SW-620
[20] = test system: U-251

SMILES | GI50 [1] | GI50 [2] | GI50 [3] | GI50 [4] | GI50 [5] | GI50 [6] | GI50 [7] [µM] | GI50 [8] | GI50 [9] | GI50 [10] | GI50 [11] | GI50 [12] | GI50 [13] | GI50 [14] | GI50 [15] | GI50 [16] | GI50 [17] | GI50 [18] | GI50 [19] | GI50 [20]
COc1cc(OC)c(OC)cc1/C=C/c1ccccn1 | > 10 µM (inactive) | > 10 µM (inactive) | > 10 µM (inactive) | > 10 µM (inactive) | > 10 µM (inactive) | > 10 µM (inactive) | > 10 | > 10 µM (inactive) | > 10 µM (inactive) | > 10 µM (inactive) | > 10 µM (inactive) | > 10 µM (inactive) | > 10 µM (inactive) | > 10 µM (inactive) | > 10 µM (inactive) | > 10 µM (inactive) | > 10 µM (inactive) | > 10 µM (inactive) | > 10 µM (inactive) | > 10 µM (inactive)
CCOC(=O)c1[nH]cc(C)c1-c1cccn1-c1ccc(Cl)cc1[N+](=O)[O-] | 23.9 µM (inactive) | 27.2 µM (inactive) | 31.7 µM (inactive) | 25.6 µM (inactive) | 19.4 µM (inactive) | 16.7 µM (inactive) | 32.1 | 16.2 µM (inactive) | 14.7 µM (inactive) | 22.6 µM (inactive) | 30.7 µM (inactive) | 22.2 µM (inactive) | 23.9 µM (inactive) | 14 µM (inactive) | 20.1 µM (inactive) | 22.8 µM (inactive) | 14.9 µM (inactive) | 19.1 µM (inactive) | 23.1 µM (inactive) | 15.1 µM (inactive)
CC1(C)[N+]([O-])=[N+]([O-])C1(C)O (configuration not stated) | – | > 100 µM (inactive) | > 100 µM (inactive) | > 100 µM (inactive) | > 100 µM (inactive) | > 100 µM (inactive) | > 100 | > 100 µM (inactive) | > 100 µM (inactive) | > 100 µM (inactive) | > 100 µM (inactive) | > 100 µM (inactive) | > 100 µM (inactive) | > 100 µM (inactive) | > 100 µM (inactive) | > 100 µM (inactive) | > 100 µM (inactive) | > 100 µM (inactive) | > 100 µM (inactive) | > 100 µM (inactive)
S=c1scc(-c2ccc(Cl)cc2)n1OC1CCCC1 | 25.5 µM (inactive) | 30.2 µM (inactive) | 47.2 µM (inactive) | – | 23.9 µM (inactive) | 22.2 µM (inactive) | 21.8 | 20.9 µM (inactive) | 48.8 µM (inactive) | 16.1 µM (inactive) | 27 µM (inactive) | 21.6 µM (inactive) | 16.9 µM (inactive) | 16.4 µM (inactive) | 29.9 µM (inactive) | 72.4 µM (inactive) | 11.4 µM (inactive) | 36.5 µM (inactive) | 32.7 µM (inactive) | 15.6 µM (inactive)
CC(=O)O[C@H]1C[C@H]2[C@@H]([C@H](OC(C)=O)C[C@@H]3CC4(CC[C@@]32C)OOC2(CCCCC2)OO4)[C@@H]2CC[C@H]([C@H](C)CCC(=O)O)[C@@]12C | 7.24 µM (inactive) | 4.24 µM (inactive) | 7.1 µM (inactive) | 2.33 µM (inactive) | 12 µM (inactive) | 5.81 µM (inactive) | 4.39 | 11.5 µM (inactive) | 1.87 µM (inactive) | 5.57 µM (inactive) | 4.65 µM (inactive) | 8.75 µM (inactive) | 4.13 µM (inactive) | 3.24 µM (inactive) | 7.24 µM (inactive) | 11.4 µM (inactive) | 10.6 µM (inactive) | 3.61 µM (inactive) | 10.2 µM (inactive) | 4.52 µM (inactive)
CCCCCCCC/C=C(\Br)C(O)C(Br)Br (configuration not stated) | 22.3 µM (inactive) | 22.4 µM (inactive) | 19.5 µM (inactive) | 16.1 µM (inactive) | 18.8 µM (inactive) | 27.2 µM (inactive) | 20.6 | – | 24.7 µM (inactive) | 69.7 µM (inactive) | 25.5 µM (inactive) | 21.8 µM (inactive) | 22.1 µM (inactive) | 19.1 µM (inactive) | 38.1 µM (inactive) | 29.2 µM (inactive) | 17.9 µM (inactive) | 36 µM (inactive) | 16.3 µM (inactive) | 30 µM (inactive)
CN(C)Cc1cc(C(=O)/C=C/c2ccc(Cl)cc2)cc(CN(C)C)c1O | 4.04 µM (inactive) | 3.7 µM (inactive) | 6.05 µM (inactive) | 14.4 µM (inactive) | 18.7 µM (inactive) | 12.9 µM (inactive) | 15.9 | 5.6 µM (inactive) | 12.5 µM (inactive) | 5.41 µM (inactive) | 14.4 µM (inactive) | 10.4 µM (inactive) | 15.7 µM (inactive) | 3.24 µM (inactive) | 10.8 µM (inactive) | 13.4 µM (inactive) | 11.4 µM (inactive) | 8.75 µM (inactive) | 6.65 µM (inactive) | 13.4 µM (inactive)
